In experiment [1] the test system is HEL 92.1.7. Description: cells. The format is functional. The conditions noted are these: Homo sapiens, HEL 92.1.7, 72 h.
Description: Antiproliferative activity against HEL 92.1.7 cells assessed as viable cells at 10 uM measured after 3 days by WST-1 assay
The next experiment deals with HCC827. The format is functional, Homo sapiens. The conditions noted are these: at 30 µM.
Experiment [2] concerns HEL 92.1.7. Type of experiment: functional, Homo sapiens.
Description: Antiproliferative activity against HEL 92.1.7 cells assessed as inhibition of cell growth
Experiment [3] concerns HEL 92.1.7. Description: cells. The conditions noted are these: Homo sapiens, HEL 92.1.7, 72 h.
Description: Antiproliferative activity against HEL 92.1.7 cells assessed as viable cells measured after 3 days by WST-1 assay
In experiment [4] the target is Tyrosine-protein kinase JAK1 (Homo sapiens, UniProt P23458).
Chain of Tyrosine-protein kinase JAK1 (P23458 whole entry): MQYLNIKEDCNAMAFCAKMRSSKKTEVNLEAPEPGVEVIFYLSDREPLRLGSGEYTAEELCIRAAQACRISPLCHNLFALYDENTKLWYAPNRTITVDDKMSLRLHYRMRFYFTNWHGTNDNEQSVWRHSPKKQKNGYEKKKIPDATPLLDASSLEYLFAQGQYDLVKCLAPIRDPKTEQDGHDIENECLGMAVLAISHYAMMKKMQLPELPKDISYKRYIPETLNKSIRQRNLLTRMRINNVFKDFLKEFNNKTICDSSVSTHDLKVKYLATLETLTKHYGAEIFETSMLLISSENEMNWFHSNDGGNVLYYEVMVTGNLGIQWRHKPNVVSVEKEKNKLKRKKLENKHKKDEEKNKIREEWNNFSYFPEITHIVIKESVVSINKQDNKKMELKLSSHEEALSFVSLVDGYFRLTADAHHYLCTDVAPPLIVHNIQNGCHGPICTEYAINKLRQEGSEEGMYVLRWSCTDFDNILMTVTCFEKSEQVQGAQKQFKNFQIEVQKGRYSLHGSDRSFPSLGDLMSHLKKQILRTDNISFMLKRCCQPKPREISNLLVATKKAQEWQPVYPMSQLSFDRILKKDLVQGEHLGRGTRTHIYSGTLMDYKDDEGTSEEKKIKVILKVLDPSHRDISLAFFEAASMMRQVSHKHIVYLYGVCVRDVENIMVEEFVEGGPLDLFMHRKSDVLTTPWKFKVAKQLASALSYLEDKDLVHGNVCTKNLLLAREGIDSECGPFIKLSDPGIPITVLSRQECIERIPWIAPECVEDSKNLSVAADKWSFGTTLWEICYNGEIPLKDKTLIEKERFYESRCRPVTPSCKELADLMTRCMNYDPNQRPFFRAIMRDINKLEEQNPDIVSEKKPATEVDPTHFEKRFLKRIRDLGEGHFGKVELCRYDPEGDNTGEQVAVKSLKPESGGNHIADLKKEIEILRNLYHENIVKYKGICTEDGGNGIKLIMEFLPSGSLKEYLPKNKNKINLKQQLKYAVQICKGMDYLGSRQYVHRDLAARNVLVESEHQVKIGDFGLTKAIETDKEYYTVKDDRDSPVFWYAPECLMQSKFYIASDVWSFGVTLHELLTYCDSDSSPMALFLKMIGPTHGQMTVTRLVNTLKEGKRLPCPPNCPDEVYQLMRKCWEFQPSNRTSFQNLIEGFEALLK
Experiment [5] deals with T1, Tyrosine-protein kinase JAK3 (Homo sapiens, UniProt P52333).
T1 sequence (P52333 whole entry): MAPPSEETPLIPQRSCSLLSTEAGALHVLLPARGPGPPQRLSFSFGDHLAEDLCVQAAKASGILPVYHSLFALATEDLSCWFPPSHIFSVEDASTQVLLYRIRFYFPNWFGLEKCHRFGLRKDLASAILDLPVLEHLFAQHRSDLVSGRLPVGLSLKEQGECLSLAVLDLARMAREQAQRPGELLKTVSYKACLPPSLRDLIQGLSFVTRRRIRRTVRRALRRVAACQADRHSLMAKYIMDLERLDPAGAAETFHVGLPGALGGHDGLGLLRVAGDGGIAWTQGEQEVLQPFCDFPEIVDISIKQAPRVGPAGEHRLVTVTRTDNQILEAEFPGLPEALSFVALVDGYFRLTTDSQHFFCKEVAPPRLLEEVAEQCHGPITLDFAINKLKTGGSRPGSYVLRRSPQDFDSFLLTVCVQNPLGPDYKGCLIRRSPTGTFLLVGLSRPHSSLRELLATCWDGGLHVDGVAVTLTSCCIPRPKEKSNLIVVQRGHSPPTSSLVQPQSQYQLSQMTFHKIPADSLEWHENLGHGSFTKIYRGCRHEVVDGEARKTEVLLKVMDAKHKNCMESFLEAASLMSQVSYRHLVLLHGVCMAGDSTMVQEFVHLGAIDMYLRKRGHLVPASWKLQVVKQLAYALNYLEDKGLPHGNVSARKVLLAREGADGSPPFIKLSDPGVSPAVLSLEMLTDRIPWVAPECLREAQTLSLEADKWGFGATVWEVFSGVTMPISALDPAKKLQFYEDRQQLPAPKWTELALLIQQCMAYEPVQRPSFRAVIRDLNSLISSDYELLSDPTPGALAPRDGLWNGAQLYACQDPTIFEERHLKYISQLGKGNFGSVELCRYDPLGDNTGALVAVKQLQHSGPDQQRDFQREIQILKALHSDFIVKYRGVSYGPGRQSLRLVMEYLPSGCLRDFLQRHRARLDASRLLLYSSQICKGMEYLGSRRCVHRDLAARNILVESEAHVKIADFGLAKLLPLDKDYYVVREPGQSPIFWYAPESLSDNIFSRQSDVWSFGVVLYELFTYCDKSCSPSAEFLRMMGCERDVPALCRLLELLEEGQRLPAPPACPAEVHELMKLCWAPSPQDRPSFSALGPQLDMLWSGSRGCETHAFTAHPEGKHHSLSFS
Description: Inhibition of JAK3 (unknown origin) measured after 1 hr in presence of ATP by TR-FRET assay

Description for HCC827: Cytotoxicity against wild-type human HCC827 cells at 30 uM measured after 72 hrs by MTT assay

`Cc1nn(CC2CCCC2)nc1-c1ncnc2[nH]ccc12`: 10 µM produced 64.1% inhibition in the experiment with HEL 92.1.7 [1].

Turning to `N#CC[C@H](C1CCCC1)n1cc(-c2ncnc3[nH]ccc23)cn1` [RUXOLITINIB], the “inhibition (INH)” value with HCC827 was determined as 16.6%. Besides, the “growth inhibition (GI)” value in the experiment with HEL 92.1.7 [2] is given as 55%. This compound yielded an IC50 with HEL 92.1.7 [3] of 14700 nM.

In the case of `Cc1nn(CC2CCC2)nc1-c1ncnc2[nH]ccc12`, in the experiment with HEL 92.1.7 [1], the inhibition at 10 µM is 49.8%.

In experiment [4], `Cc1nn(CCCCC#N)nc1-c1ncnc2[nH]ccc12` showed an IC50 of 138 nM. Further, at 10 µM the inhibition in the experiment with HEL 92.1.7 [1] was 41.3%.

`C=C(C)Cn1nc(C)c(-c2ncnc3[nH]ccc23)n1` came in with an IC50 in experiment [4] of 142 nM. The compound also showed an inhibition at 10 µM with HEL 92.1.7 [1] of 52.7%.

On to `Cc1nn(CCCC#N)nc1-c1ncnc2[nH]ccc12`, for which the IC50 in experiment [5] was found to be 1760 nM; in experiment [4], 72 nM. The compound also gave an inhibition at 10 µM in the experiment on HEL 92.1.7 [1] of 65.3%.

Compound `Cc1nn(CCCCCC#N)nc1-c1ncnc2[nH]ccc12` came in with an IC50 in experiment [4] of 186 nM.

In experiment [4], `Cc1nn(CCCC(F)(F)F)nc1-c1ncnc2[nH]ccc12` returned an IC50 of 82 nM. Besides, at 10 µM the inhibition in the experiment on HEL 92.1.7 [1] was 9.1%.

Take `Cc1nn(CC2CC2)nc1-c1ncnc2[nH]ccc12`: the IC50 in experiment [5] amounted to 2440 nM; in experiment [4], 444 nM. For the same compound, in the experiment on HEL 92.1.7 [1], at 10 µM the inhibition was 44.8%.
